Assay results from patent publication US20090186918A1, “Triazole Compounds as Lipoxygenase Inhibitors” (priority 2005, published 2009).
Like-named read-outs stand apart in the source and are kept apart here.

Target: T1, purified human 15-lipoxygenase (Homo sapiens, UniProt P16050)
T1 sequence (P16050 1-662): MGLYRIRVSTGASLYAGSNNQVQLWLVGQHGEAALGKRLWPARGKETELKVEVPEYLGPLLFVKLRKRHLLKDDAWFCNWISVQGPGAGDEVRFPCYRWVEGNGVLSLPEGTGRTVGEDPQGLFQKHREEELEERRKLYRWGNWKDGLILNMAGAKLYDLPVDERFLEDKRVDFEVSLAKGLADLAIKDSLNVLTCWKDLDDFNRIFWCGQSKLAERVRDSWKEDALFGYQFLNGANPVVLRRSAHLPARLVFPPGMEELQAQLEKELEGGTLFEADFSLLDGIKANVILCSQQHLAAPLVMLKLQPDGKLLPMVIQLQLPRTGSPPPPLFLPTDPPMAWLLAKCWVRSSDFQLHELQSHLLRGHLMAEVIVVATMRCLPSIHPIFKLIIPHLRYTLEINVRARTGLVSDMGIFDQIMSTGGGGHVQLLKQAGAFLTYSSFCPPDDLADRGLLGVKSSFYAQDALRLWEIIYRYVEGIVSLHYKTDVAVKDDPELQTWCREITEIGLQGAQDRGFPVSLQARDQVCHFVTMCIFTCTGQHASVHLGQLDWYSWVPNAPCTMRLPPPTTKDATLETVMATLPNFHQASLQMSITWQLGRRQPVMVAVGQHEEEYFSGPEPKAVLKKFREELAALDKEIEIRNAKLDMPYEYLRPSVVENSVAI
Assay: 15-lipoxygenase inhibition assay (arachidonic acid oxidation, 15-HPETE/15-HETE measured by reverse phase HPLC)
Type: biochemical
Protocol: The assay employed takes advantage of the ability of lipoxygenases to oxidize polyunsaturated fatty acids, containing a 1,4-cis-pentadiene configuration, to their corresponding hydroperoxy or hydroxyl derivatives. In this particular assay, the lipoxygenase was a purified human 15-lipoxygenase and the fatty acid was arachidonic acid. The assay is performed at room temperature (20-22° C.) and the following are added to each well in a 96-well microtiter plate:
a) 35 μL phosphate buffered saline (PBS) (pH 7.4); b) inhibitor (i.e. compound) or vehicle (0.5 μl DMSO); c) 10 μL of a 10× concentrated solution of 15-lipoxygenase in PBS. The plates are incubated for 5 minutes at room temperature;
d) 5 μl of 0.125 mM arachidonic acid in PBS. The plate is then incubated for 10 minutes at room temperature;
e) the enzymatic reaction is terminated by the addition of 100 μl methanol; and f) the amount of 15-hydroperoxy-eicosatetraenoic acid or 15-hydroxy-eicosatetraenoic acid is measured by reverse phase HPLC.

[1] = purified human 15-lipoxygenase, arachidonic acid substrate, room temperature, read-out: IC50

Compound | IC50 [1] [nM] | IC50 [nM]
O=C(Nc1cc(Cl)cc(Cl)c1)c1c[nH]nn1 [Example 82, 1,2,3-Triazole-4-carboxylic acid (3,5-dichlorophenyl)amide] | 4100 | –
O=C(Nc1cc(Cl)c(Cl)cc1Cl)c1c[nH]nn1 [Example 12, 1,2,3-Triazole-4-carboxylic acid (2,4,5-trichlorophenyl)amide] | 760 | –
O=C(Nc1cnc2ccccc2c1)c1cn[nH]n1 [Example 1, 1,2,3-Triazole-4-carboxylic acid quinolin-3-ylamide] | – | 1400
Cc1cc(NC(=O)c2c[nH]nn2)ccc1Cl [Example 18, 1,2,3-Triazole-4-carboxylic acid (4-chloro-3-methylphenyl)amide] | 950 | –
O=C(Nc1ccc(C(F)(F)F)cc1C(F)(F)F)c1c[nH]nn1 [Example 36, 1,2,3-Triazole-4-carboxylic acid [2,4-bis(trifluoromethyl)phenyl]amide] | 1160 | –
O=C(Nc1ccc(Br)cn1)c1c[nH]nn1 [Example 35, 1,2,3-Triazole-4-carboxylic acid (5-bromopyridin-2-yl)amide] | 810 | –

Second part, led by results:

IC50 [1] [nM] | Compound | IC50 [nM]
9400 | Cc1ccc(NC(=O)c2c[nH]nn2)cc1F [Example 91, 1,2,3-Triazole-4-carboxylic acid (3-fluoro-4-methylphenyl)amide] | –
1800 | O=C(Nc1ccc(Cl)cn1)c1c[nH]nn1 [Example 7, 1,2,3-Triazole-4-carboxylic acid (5-chloropyridin-2-yl)amide] | –
330 | O=C(Nc1ccc(Cl)c(Cl)c1Cl)c1c[nH]nn1 [Example 6, 1,2,3-Triazole-4-carboxylic acid (2,3,4-trichlorophenyl)amide] | –
250 | O=C(Nc1ccc(Cl)cc1C(F)(F)F)c1c[nH]nn1 [Example 75, 1,2,3-Triazole-4-carboxylic acid 4-chloro-2-(trifluoromethyl)phenylamide] | –
1600 | O=C(Nc1ccc(Cl)c(Cl)c1)c1c[nH]nn1 [Example 9, 1,2,3-Triazole-4-carboxylic acid (3,4-dichlorophenyl)amide] | –
530 | O=C(Nc1ccc(Cl)cc1F)c1c[nH]nn1 [Example 76, 1,2,3-Triazole-4-carboxylic acid 4-chloro-2-fluorophenylamide] | –
3800 | O=C(Nc1ccc(C(F)(F)F)cc1[N+](=O)[O-])c1c[nH]nn1 [Example 73, 1,2,3-Triazole-4-carboxylic acid 2-nitro-4-(trifluoromethyl)phenylamide] | –
